Laboratory results reported in ChEMBL document CHEMBL1139746, “Enzyme inhibition potency enhancement by active site metal chelating and hydrogen bonding induced conformation-restricted cyclopropanecarbonyl derivatives” (Bioorg Med Chem Lett, 2006).

How the values were obtained:
[1] = target: Dihydroorotate dehydrogenase (quinone), mitochondrial (Rattus norvegicus, UniProt Q63707); assay: Inhibition of rat DHODH
[2] = target: 4-hydroxyphenylpyruvate dioxygenase (Sus scrofa, UniProt Q02110); assay: Inhibition of pig HPPD
Sequence of 4-hydroxyphenylpyruvate dioxygenase (Q02110 whole entry): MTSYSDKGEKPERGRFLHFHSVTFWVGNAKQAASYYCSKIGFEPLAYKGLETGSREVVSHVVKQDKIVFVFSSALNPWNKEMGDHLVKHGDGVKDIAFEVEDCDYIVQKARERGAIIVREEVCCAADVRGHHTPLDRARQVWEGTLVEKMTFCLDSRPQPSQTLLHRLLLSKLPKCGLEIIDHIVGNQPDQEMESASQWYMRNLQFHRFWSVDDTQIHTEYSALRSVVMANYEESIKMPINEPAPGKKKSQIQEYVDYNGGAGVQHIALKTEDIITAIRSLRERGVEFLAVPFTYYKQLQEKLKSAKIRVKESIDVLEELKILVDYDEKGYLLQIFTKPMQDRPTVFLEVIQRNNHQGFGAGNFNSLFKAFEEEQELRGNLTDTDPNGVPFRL

Sequence of Dihydroorotate dehydrogenase (quinone), mitochondrial (Q63707 whole entry): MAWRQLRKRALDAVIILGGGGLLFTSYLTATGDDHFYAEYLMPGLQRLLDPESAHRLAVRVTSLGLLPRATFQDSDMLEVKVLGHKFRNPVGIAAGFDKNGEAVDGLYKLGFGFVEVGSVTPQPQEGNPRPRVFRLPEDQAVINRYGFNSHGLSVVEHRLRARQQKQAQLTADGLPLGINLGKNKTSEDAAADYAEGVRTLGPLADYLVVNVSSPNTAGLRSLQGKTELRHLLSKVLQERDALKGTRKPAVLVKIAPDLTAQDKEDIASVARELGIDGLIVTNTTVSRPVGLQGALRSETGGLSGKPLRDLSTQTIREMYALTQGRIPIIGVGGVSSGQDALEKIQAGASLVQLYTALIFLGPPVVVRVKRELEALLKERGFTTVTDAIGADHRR

Row | IC50 [1] | IC50 [2] | SMILES
1 | 0.295 µM | – | CC(C)/C(O)=C(\C#N)C(=O)Nc1ccc(C(F)(F)F)cc1
2 | – | 322 µM | O=C(c1c(O)c2ccccc2oc1=O)C1CC1
3 | – | 21 µM | O=C1CCCC(O)=C1C(=O)C1CCC1
4 | – | 33.1 µM | O=C1CCCC(O)=C1C(=O)C1CCCC1
